Results on three compounds are retold here after ChEMBL document CHEMBL6074621, “Recent advances of honokiol:pharmacological activities, manmade derivatives and structure-activity relationship” (Eur J Med Chem, 2024).

As usually defined, the IC50 is the concentration needed to halve the response being measured. As usually defined, the inhibition is how much of the control response was suppressed. Low readings indicate a weak effect, high ones a strong effect.

One assay concerns PC-3. Kind of assay: Antiproliferative activity against human PC-3 cells assessed as reduction in cell growth after 72 hrs by MTT assay. Type of assay: functional, cell-based. To be noted: PC-3, 72 h.
A further assay relates to HCT-116. Kind of assay: Antiproliferative activity against human HCT-116 cells assessed as reduction in cell growth after 72 hrs by MTT assay. To be noted: HCT-116, 72 h. Type of assay: functional, cell-based. On the technique in general: Tetrazolium assays rely on reduction of a dye to a coloured formazan, in cell work by metabolically active cells.
For another assay, the system named is HT-29. Kind of assay: Antiproliferative activity against human HT-29 cells assessed as reduction in cell growth after 72 hrs by MTT assay. It counts as functional, cell-based. To be noted: HT-29, 72 h.
The species entered for a further assay is Homo sapiens. The assay can be described thus: Inhibition of human pancreatic lipase at 10 uM relative to control.
The subject of another assay is SMMC-7721. The assay can be described thus: Antiproliferative activity against human SMMC-7721 cells. It counts as functional, cell-based.
A further assay deals with L02. Kind of assay: Antiproliferative activity against human LO2 cells. It counts as functional, cell-based.

Turning to `C=CCc1cc(CC=C)c(O)c(-c2cc(CC=C)c(O)c(CC=C)c2)c1`, the IC50 in the assay on PC-3 was found to be 19.8 µM; with HCT-116, 9.8 µM; with HT-29, 11.1 µM.
For `C/C(Cc1ccc(O)c(-c2ccc3oc(C)cc3c2)c1)=N\NC(=O)c1ccc(O)cc1`, in the assay listed under Homo sapiens, the inhibition is 81%.
Turning to `C=CCc1cc(CN2CCC(N)CC2)c(O)c(-c2cc(CC=C)c(O)c(CN3CCC(N)CC3)c2)c1`, the results for the IC50 in the assay with SMMC-7721 and in the assay on L02 were 13.1 µM and 18 µM, respectively.
